The numbers were not newly measured in patent US20040018533A1, “Diagnosing predisposition to fat deposition and therapeutic methods for reducing fat deposition and treatment of associated conditions” (priority 2002, published 2004), which cites them from elsewhere.

The target in this data set is P2X4 (Homo sapiens, UniProt Q99571). Particulars: Xenopus oocytes.
Chain of P2X4 (Q99571 whole entry, species assumed): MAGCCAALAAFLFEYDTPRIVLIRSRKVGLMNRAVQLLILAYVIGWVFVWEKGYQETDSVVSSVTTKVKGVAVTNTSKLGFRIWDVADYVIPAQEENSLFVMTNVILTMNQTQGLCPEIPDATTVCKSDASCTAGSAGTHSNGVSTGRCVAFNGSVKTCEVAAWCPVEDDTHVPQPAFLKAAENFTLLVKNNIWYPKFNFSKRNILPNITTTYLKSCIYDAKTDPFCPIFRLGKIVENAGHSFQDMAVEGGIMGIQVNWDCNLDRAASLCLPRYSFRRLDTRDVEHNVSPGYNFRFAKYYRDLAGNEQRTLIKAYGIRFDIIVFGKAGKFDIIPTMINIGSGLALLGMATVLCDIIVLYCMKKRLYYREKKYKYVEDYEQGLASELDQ

For the compound `CCO` [ethanol], the “effect on P2X4 function” value was “inhibits P2X4 function”.
